According to paper PMC11555231 (Nature Communications, 2024):
Bridge positions count the residues as written; N and C are the ends. Square brackets hold non-standard residues; d marks the D form. Peptide text beside a SMILES is read from it.

How the values were obtained:
hPADI4 = molecular target: T1, hPADI4 (Homo sapiens, UniProt Q9UM07); assay: COLDER assay, inhibition of PADI4 at 10 mM CaCl2 (substrate BAEE); type: biochemical; settings: COLDER, 10 mM CaCl2, peptide 10–0.0003 µM
T1 construct: PADI4 (residues 1–663); Avi-Tag (unbiotinylated); made in house; host or cells: E. coli BL21(DE3) without BirA
Protocol: PADI4 activity was assessed using the COLDER assay[43] that measures the formation of urea-containing compounds (e.g. citrulline). The reaction was carried out in a 96-well plate with a final volume of 50 µl. His-PADI4 (50 nM) was incubated with different concentrations of peptides (100 µM to 0.3 nM) in the presence of CaCl2 (from 10 mM to 0.001 mM as specified) for 10 min. The reaction was started by the addition of 10 mM N^α-Benzoyl-L-arginine ethyl ester hydrochloride (BAEE, Merck). After 30 min, the reaction was quenched with EDTA (50 mM final concentration). For colour development, 200 µl of COLDER solution, consisting of 1 volume of solution A (80 mM diacetyl monoxime/2,3-butanedione monoxime (Merck) and 2 mM thiosemicarbazide (Acros Organics)) and 3 volumes of solution B (3 M H3PO4, 6 M H2SO4 and 2 mM NH4Fe(SO4)2) were added to each well and the mixture was heated at 95 °C for 15 min. After cooling to RT, absorbance at 540 nm was measured, and citrulline concentration was determined using a standard curve of citrulline standards. All studies were performed within the linear range of PADI4 activity, and data analysis was performed using Prism GraphPad (Dotmatics). Data are presented as the average ± standard error of the mean from at least two independent replicates.

human neutrophils = assay: Cholesterol crystal stimulation and NET preparation, immunoblot of citrullinated histone H3; type: cell-based; settings: 50 µM peptide pre-incubated 1 h, 1 mg/ml cholesterol crystals
Protocol: Peripheral venous blood was isolated from consenting healthy adult volunteers in heparin tubes as previously described. Briefly, blood samples were on Histopaque 1119 (Sigma-Aldrich) and then centrifuged for 20 min at 800 × g. The plasma was collected and centrifuged for a second time for 20 min at 800 × g. The neutrophil layer was collected and washed in Hyclone Hank’s Balanced Salt Solution (HBSS) -Ca, -Mg, -Phenol red (GE Healthcare) supplemented with 10 mM HEPES (Invitrogen) 0.1% FBS and further purified with a discontinuous Percoll (GE Healthcare) gradient consisting of layers with densities of 85, 80, 75, 70 and 65% and centrifuged for 20 min at 800 × g. Neutrophil-enriched layers were then collected and washed, and neutrophil purity was assessed using flow cytometry.
About 1 × 10^6 human blood neutrophils were isolated as described in the “Human neutrophils from peripheral blood healthy donors” section. Neutrophils were seeded in 6 well plates in HBSS +Ca, +Mg, -Phenol red (GE Healthcare) containing 10 mM HEPES (Invitrogen), left to settle for 30 min, then pre-incubated with either 50 μM PADI4_3, PADI4_3i or DMSO (0.5%) for 1 h. […] NET DNA concentration was determined by Quant-iT Picogreen dsDNA reagent as per the manufacturer’s instructions (Thermo Fisher Scientific). […]

T1 sequence (Q9UM07 whole entry, the tested form may be a part): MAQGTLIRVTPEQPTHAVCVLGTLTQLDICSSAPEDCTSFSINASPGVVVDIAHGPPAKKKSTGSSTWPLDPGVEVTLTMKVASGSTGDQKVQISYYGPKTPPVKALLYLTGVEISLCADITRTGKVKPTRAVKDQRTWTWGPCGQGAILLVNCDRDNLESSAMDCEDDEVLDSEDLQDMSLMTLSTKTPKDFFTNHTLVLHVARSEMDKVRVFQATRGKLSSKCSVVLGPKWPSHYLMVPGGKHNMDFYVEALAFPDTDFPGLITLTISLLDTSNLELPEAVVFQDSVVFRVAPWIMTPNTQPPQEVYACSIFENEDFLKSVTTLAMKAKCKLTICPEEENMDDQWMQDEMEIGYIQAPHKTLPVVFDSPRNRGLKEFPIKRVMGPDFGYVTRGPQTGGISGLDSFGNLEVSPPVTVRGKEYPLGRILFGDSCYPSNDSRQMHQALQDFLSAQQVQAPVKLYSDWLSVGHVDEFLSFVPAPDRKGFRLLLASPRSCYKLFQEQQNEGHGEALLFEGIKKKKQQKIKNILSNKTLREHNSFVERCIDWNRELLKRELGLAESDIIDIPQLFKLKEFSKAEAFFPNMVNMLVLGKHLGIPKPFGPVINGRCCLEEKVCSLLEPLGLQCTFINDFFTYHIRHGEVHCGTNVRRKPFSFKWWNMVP

With `N=C(N)NCCC[C@@H]1NC(=O)[C@H](CC(=O)O)NC(=O)[C@@H](Cc2ccc(O)cc2)NC(=O)CSC[C@@H](C(=O)NCC(N)=O)NC(=O)[C@H](Cc2ccc(O)cc2)NC(=O)[C@H](CCCCN)NC(=O)[C@@H]2CCCN2C(=O)[C@H](Cc2c[nH]cn2)NC(=O)[C@H](CCCNC(=N)N)NC(=O)[C@H](Cc2ccc(O)cc2)NC(=O)[C@H](Cc2c[nH]cn2)NC(=O)[C@H](Cc2c[nH]cn2)NC1=O` [PADI4_3i] ({CH2CO}-[dY]DRHHYRHPKYCG-NH2; thioether N-12) the “PADI4 inhibition (in words)” value (hPADI4) was “did not bind or inhibit PADI4” and the “citrullination of histone 3 in NET preparations” value (human neutrophils) was “abolished by PADI4_3 but not PADI4_3i”.
